Source: article PMC9837035 (Nature Communications, 2023)
Where “and” joins values, the source holds several entries; their conditions need not be identical. Equal values may be shown once. Read-outs that look alike come from different tables or passages of the source.

Key:
[1] = molecular target: PRMT8 (Homo sapiens, UniProt Q9NR22); experiment: Radioisotope-based methyltransferase assay (selectivity)
[2] = molecular target: PRMT5/MEP50 (Homo sapiens, UniProt O14744); experiment: biochemical
[3] = tested on: CD34+ cells; experiment: Flow cytometry of erythroid differentiation (CD45, glycophorin A); format: cell-based, human
Description: For the analysis of HbF expression, HUDEP-2 cells or cells differentiated from human CD34 + progenitor cells were fixed in 0.05% glutaraldehyde for 10 min, then washed two times with PBS containing 2% FBS (PBS/2% FBS) and permeabilized with 0.1% Triton X-100 (prepared in PBS/2% FBS; Life Technologies) for 5 min. After washing with PBS/2% FBS two times, cells were stained with allophycocyanin (APC)-conjugated HbF antibody (1:1, Invitrogen, MHFH05). One million cells were incubated with the HbF–APC antibody for 30 min in the dark at 4 °C. Cells were washed twice with PBS/2% FBS, then suspended in 0.2 ml PBS/2% FBS and analyzed using a FACSCalibur (Becton Dickinson). To assess erythroid differentiation, hematopoietic cells differentiated from human CD34 cells were stained with FITC-conjugated CD45 antibody (1:1, Becton Dickinson, 555482) and APC-conjugated glycophorin A antibody (1:20, Becton Dickinson, 551336). Stained cells were suspended in 0.2 ml PBS/2% FBS containing 1 μg/ml propidium iodide (Sigma) and analyzed by FACSCalibur. The results of flow cytometer were further analyzed by FlowJo software (Becton Dickinson).

[4] = molecular target: T1, PRDM9 (Homo sapiens, UniProt Q9NQV7); experiment: Radioisotope-based methyltransferase assay (selectivity); format: biochemical; conditions: read-out: IC50
T1 construct: purchased Reaction Biology

[5] = Parallel artificial membrane permeability assay (PAMPA); format: in vitro ADME
Description: Parallel artificial membrane permeability measurements were performed in duplicate with a Corning Gentest Pre-coated PAMPA Plate System according to the standard protocol of Corning Incorporated Life Sciences (Tewksbury).

[6] = molecular target: PRMT7 (Homo sapiens, UniProt Q9NVM4)
[7] = molecular target: T2, PRMT4 (Homo sapiens, UniProt Q86X55); experiment: Radioisotope-based methyltransferase assay (selectivity); format: biochemical
T2 construct: purchased Reaction Biology

[8] = tested on: α-, β-, εy-, and βh1-globin mRNA in peripheral blood; experiment: Globin mRNA levels in peripheral blood of treated mice; format: in vivo
Description: Total cellular RNA was prepared using the Tissue Total RNA Mini Kit (FAVORGEN), and cDNA was synthesized using ReverTra Ace Master Mix (TOYOBO). Expression of target genes was analyzed using THUNDERBIRD SYBR qPCR Mix (TOYOBO) on a CFX Connect Real Time System (Bio-Rad). The qPCR data were acquired on CFX Maestro (Bio-Rad). Primers are listed in Supplementary Table 10. GAPDH was used as a reference. Primers were purchased from INTEGRATED DNA TECHNOLOGIES or FASMAC.
C57BL/6 mice (6–8 weeks old, female, six mice/group) were purchased from Tokyo Laboratory Animals Science. The mice were fed a standard laboratory diet and housed in a temperature-controlled room under specific pathogen-free conditions. A combination anesthetic was prepared with 0.3 mg/kg medetomidine, 4.0 mg/kg midazolam, and 5.0 mg/kg butorphanol.
The dosing solution contained 15% DMSO, 17.5% Cremophor EL, 8.75% EtOH, 8.75% HCO-40, and 50% PBS. Blood samples were collected once a week by Retro Orbital Sampling (75 μL Calibrated Micropipette; Drummond Scientific Company) during isoflurane anesthesia. Blood RNA was extracted using NucleoSpin RNA Blood (Takara Bio Inc.). The weight of each mouse was measured every 3 or 4 days.

[9] = tested on: CHD3 and CHD4 occupancy at the BGLT3 gene locus; experiment: ChIP-qPCR with antibodies against CHD3 or CHD4 in HUDEP-2 cells; format: cell-based, human; conditions: HUDEP-2, 1 μM, 4 days
Description: A total of 0.5–1 × 10^6 cells were cross-linked with 1% formaldehyde for 10 min at room temperature and the reaction was quenched with 250 mM glycine. Cross-linked cells were then lysed with buffer 1 (15 mM Tris-HCl (pH 7.5), 60 mM KCl, 15 mM NaCl, 5 mM MgCl2, 0.1 mM EGTA, 300 mM sucrose, […], 1 mM phenylmethanesulfonyl fluoride (PMSF), 0.5% NP40) and incubated on ice for 10 min. After centrifugation, the pellet was re-suspended in buffer 2 (15 mM Tris-HCl (pH 7.5), 60 mM KCl, 15 mM NaCl, 5 mM MgCl2, 0.1 mM EGTA, 1.2 M sucrose, […], 1 mM PMSF). After centrifugation, the pellet was then re-suspended in MNase buffer (50 mM Tris-HCl (pH 7.5), 1 mM CaCl2, 4 mM MgCl2, 320 mM sucrose, 1 mM PMSF) and digested with 100 U of micrococcal nuclease (Takara) at 37 °C for 15 min. […] The samples were analyzed by qPCR. […] ChIP-seq analysis were analyzed Cutadapt (V1.9.1) for QC, FastQC (V0.10.1) for QC assessment, Bowtie (V2.1.0) for mapping, strand cross-correlation (SCC) for ChIP quality assessment, MACS2 for peak calling, and R package ChIPpeakAnno for Peak annotated.

T2 sequence (Q86X55 whole entry): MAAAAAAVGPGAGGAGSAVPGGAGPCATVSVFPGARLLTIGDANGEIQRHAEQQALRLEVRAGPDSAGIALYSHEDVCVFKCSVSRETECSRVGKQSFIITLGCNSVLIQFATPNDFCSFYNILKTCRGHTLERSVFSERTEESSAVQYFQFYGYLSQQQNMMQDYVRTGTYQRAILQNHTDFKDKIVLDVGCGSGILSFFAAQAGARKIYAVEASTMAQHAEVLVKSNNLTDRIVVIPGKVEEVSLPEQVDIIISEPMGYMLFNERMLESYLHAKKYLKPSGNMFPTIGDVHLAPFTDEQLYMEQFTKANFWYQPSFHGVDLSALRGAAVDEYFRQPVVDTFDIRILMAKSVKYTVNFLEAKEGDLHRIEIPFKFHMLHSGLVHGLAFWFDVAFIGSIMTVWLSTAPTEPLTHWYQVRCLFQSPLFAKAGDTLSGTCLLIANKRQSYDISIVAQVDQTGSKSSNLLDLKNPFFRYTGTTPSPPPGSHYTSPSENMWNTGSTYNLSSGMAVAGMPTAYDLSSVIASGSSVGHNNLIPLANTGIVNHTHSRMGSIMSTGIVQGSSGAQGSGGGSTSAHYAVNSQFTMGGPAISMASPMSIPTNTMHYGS
T1 sequence (Q9NQV7 whole entry): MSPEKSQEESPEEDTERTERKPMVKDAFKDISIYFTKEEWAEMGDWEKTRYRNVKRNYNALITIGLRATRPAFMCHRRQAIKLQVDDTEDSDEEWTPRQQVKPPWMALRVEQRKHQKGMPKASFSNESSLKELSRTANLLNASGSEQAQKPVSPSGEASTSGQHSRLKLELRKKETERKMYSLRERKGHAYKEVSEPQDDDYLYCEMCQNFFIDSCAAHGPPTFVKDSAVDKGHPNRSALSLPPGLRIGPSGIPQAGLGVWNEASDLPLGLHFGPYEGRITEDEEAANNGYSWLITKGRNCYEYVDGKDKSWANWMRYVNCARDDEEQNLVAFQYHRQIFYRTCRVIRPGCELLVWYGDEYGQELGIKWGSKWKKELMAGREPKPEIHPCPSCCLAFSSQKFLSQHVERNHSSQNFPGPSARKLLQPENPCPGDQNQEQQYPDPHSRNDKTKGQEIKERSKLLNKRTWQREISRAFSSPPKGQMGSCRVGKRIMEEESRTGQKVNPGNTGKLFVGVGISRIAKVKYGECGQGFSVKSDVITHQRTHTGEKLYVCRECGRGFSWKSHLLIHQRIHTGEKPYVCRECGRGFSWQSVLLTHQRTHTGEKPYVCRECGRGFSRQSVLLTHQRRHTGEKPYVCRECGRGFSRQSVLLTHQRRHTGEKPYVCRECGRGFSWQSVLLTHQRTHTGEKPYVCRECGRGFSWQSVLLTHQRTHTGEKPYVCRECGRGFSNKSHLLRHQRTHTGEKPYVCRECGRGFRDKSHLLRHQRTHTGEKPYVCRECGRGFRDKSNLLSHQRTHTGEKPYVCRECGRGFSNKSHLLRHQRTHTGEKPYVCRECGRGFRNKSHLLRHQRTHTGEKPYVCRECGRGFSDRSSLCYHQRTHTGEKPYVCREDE
Chain of PRMT5/MEP50 (O14744 whole entry): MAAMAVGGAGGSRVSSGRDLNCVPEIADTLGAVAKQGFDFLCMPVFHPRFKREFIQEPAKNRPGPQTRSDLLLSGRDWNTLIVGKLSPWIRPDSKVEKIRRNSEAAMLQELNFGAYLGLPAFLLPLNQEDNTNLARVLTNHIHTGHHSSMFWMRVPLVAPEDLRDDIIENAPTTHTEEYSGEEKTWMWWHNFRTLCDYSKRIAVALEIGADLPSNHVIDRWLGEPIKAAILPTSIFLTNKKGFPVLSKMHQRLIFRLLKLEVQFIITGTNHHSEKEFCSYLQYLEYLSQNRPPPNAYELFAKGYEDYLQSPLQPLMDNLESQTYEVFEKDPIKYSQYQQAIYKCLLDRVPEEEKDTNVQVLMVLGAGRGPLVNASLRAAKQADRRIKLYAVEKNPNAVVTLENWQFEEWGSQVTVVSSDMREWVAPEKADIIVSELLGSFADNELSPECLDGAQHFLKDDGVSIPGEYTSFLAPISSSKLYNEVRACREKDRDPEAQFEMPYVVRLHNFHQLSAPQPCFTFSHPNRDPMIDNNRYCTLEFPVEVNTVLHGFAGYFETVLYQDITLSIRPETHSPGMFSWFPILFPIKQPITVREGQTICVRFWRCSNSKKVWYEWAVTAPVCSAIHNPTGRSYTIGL
Chain of PRMT5/MEP50 (Q9BQA1 whole entry partner): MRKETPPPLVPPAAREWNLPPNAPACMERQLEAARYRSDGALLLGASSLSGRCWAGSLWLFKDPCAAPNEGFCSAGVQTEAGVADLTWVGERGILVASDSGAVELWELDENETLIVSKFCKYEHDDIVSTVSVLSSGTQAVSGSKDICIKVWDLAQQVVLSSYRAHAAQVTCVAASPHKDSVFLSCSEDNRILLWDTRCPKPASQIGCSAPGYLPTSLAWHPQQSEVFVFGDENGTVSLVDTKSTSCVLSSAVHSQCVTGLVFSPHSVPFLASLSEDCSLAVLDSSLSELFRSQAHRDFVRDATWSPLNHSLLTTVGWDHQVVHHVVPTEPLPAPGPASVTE
Chain of PRMT7 (Q9NVM4 whole entry): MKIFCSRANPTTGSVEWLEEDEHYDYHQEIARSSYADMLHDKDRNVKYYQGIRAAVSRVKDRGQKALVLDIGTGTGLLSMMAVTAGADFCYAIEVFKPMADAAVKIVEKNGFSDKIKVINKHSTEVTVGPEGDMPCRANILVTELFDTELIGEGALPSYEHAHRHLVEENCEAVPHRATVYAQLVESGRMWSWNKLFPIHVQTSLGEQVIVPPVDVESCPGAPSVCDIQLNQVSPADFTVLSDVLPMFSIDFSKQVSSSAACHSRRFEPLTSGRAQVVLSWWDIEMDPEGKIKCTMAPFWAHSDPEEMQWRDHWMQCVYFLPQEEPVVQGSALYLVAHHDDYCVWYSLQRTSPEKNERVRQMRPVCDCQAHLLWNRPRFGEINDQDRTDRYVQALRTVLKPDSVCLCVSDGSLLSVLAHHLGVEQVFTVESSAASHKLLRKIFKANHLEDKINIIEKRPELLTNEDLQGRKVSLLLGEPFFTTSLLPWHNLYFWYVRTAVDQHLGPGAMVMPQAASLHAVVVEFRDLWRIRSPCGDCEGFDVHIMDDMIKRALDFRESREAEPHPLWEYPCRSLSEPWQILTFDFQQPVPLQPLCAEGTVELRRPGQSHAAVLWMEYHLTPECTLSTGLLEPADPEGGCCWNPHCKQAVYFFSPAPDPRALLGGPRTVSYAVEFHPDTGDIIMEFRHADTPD
Chain of PRMT8 (Q9NR22 whole entry): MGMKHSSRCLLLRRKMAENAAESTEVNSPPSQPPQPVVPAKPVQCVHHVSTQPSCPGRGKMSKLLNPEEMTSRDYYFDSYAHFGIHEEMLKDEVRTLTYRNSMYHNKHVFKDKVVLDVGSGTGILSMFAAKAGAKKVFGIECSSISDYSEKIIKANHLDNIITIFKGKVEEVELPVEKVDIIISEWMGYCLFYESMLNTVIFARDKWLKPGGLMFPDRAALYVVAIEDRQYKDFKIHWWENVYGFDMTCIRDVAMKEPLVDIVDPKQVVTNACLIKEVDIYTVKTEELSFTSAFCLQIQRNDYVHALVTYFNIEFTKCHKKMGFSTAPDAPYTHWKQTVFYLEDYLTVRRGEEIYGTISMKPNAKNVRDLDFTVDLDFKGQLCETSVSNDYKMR

## Cc1c(C(=O)NC(CCC2CC2)C(=O)Nc2ccc(C#N)cc2)[nH]c2c1C(=O)CC(C)(C)C2 (stereo not shown) [RK-701]
[1]
  IC50: > 100 µM
[2]
  IC50: > 100 µM
[3]
  erythroid differentiation: without affecting cell viability or erythroid differentiation
[4]; PRDM9, 1 μM SAM
  IC50: > 100 µM
[4]; PRDM9, RK-701 in duplicate
  IC50: > 100 µM
[5]
  cell permeability (PAMPA and Caco-2): decent cell permeability
[5]; PAMPA
  Papp: 3.08 ± 1.47 ×10⁻⁶ cm/s
[5]; replicate values
  PAMPA: 2.736e-6 and 5.393e-6 and 2.8861e-6 and 1.3122e-6
[6]
  IC50: > 100 µM
[7]; PRMT4, 1 μM SAM
  IC50: > 100 µM
[7]; PRMT4, RK-701 in duplicate
  IC50: > 100 µM
[8]
  mouse embryonic εy-globin: selectively increased
[9]
  occupancy of CHD4 on the BGLT3 gene locus: significantly decreased
